# According to patent publication US20070202079A1, “Therapeutic compositions and methods useful in modulating protein tyrosine phosphatases” (priority 2006, published 2007):
# How the values were obtained:
# LoVo = LoVo cell growth, MTT; assay type: cell-based, human; settings: 100 μg/ml, day 6
# Description: (§1) NIH3T3 (Yi, et al., Blood 85, 87 (1995)), WM9 (Forsberg, et al., Proc. Nat. Acad Sci. USA 90, 393 (1993)), DU145 (Mickey, et al., Cancer Res. 37, 4049 (1977)), LoVo (Drewinko, et al., Cancer Res. 36, 467 (1976)), HEY (Buick, et al., Cancer Res. 45, 3668 (1985)), U251 (Yoshida, et al., Cancer 50, 410 (1982)), A549 (Giard, et al., J. Natl. Cancer Inst. 51, 1417 (1973)) and SK-N-SH (Helson, et al., Cancer Res. 35, 2594 (1975)) cell lines have been described and were cultured in RPMI 1640 supplemented with 10% fetal calf serum (FCS). For measurement of sodium stibogluconate effects on cell growth in vitro, cells were cultured in the absence (−) or presence (+) of various amounts of sodium stibogluconate for 6 days with viable cells quantified by MTT assays (Mosmann, J. Immunol. Methods 65, 55 (1983)). Percentages of growth inhibition by sodium stibogluconate were calculated (.+−.x%).
# SK-N-SH = SK-N-SH cell growth, MTT; assay type: cell-based, human; settings: 100 μg/ml, day 6
# Description: as §1
# Flag-PRL-1 = target: T1, Flag-PRL-1 (Homo sapiens, UniProt Q93096); experiment: immunocomplex PTPase assay, NIH3T3 Flag-PRL-1 transfectants; assay type: cell-based, mouse; settings: cells treated 5 min
# T1 construct: expressed in transfected cells; host or cells: WM9 human melanoma cell line (pBabepuro, puromycin-selected)
# T1 sequence (Q93096 whole entry): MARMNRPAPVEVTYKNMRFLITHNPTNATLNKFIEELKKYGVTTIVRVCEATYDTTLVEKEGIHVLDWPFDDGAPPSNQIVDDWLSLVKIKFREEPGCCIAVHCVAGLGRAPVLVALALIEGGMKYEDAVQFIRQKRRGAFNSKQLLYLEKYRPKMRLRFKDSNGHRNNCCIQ
# Description: Immunocomplex PTPase assays were performed to assess the effects of sodium stibogluconate on intracellular PTPases. Cells were untreated or treated with sodium stibogluconate for 5 minutes, washed with fresh medium and then lysed in cold lysis buffer (50 mM Tris, pH 7.4; 150 mM NaCl; 1% NP40; 2 mM PMSF; 20 μg/ml of Aprotinin). The lysates were incubated with an anti-Flag antibody in immunoprecipitation assays. The immunocomplexes were collected with protein G sepharose beads (Pharmacia) and washed in cold lysis buffer for 4 times. […] C. for 18 hrs. 100 μL of malachite green solution (UBI) was added to each reaction prior to measurement of OD660 to quantify the amounts of free phosphate cleaved by the PTPases from the peptide substrate (Pathak et al., J. Immunol. 167, 3391 (2001)). The remaining 10% contents of individual samples were analyzed by SDS-PAGE/Western blotting to quantify the relative amounts of the phosphatase proteins. […]
# The effects of sodium stibogluconate on intracellular PTPases were assessed using NIH3T3 or WM9 transfectants. […]
# WM35 = WM35 cell growth, MTT; assay type: cell-based, human
# Description: For cell proliferation assays, cells were grown in 10% FCS culture medium containing various amounts of IFNs and/or sodium stibogluconate in 96 well plates and cultured at 37° C. for 3 or 6 days as indicated. The numbers of viable cells in proliferation assays were determined by MTT assays as described in Phatak et al., J. Immunol. 167, 3391 (2001).
# [1] = tested on: Stat1 tyrosine phosphorylation; experiment: IFN-alpha-induced Stat1 tyrosine phosphorylation, Western blotting; assay type: cell-based, human
# Description: For induction of Stat1 tyrosine phosphorylation by IFN-alpha in the absence or presence of sodium stibogluconate, cells grown in 10% FCS RPMI 1640 medium at 37° C. were stimulated with IFN-alpha (50 u/ml) for various time points and treated with or without sodium stibogluconate for 5 minutes prior to termination by lysing the cells in cold lysis buffer (1% NP-40; 50 mM Tris, pH 7.4; 100 mM NaCl; 1 mM EDTA, 10% glycerol, 10 mM sodium molybdic acid and 4 mM AEBSF).
# Cell lysates were prepared by lysing cells in cold lysis buffer for 30 min and cleared by centrifuging at 14,000 rpm at 4° C. for 15 min. For SDS-PAGE, cell lysates were mixed with equal volume of 2×SDS-PAGE sample buffer, heated at 90° C. for 5 min and separated in 10% SDS-PAGE gels. Cellular proteins in SDS-PAGE gels were transferred to nitrocellulose membrane (Schleicher & Schuell, Keene, N.H.), blocked in 5% milk, probed with antibodies and detected by using an enhanced chemiluminescence kit (ECL, Amersham, Arlington Heights, Ill.).
# Renca tumors = Renca tumors in Balb/c mice; assay type: in vivo; settings: Balb/c mice, two weeks
# Description: Balb/c and athymic nude Balb/c mice (10 weeks old, female, Taconic Farms, Germantown, N.Y.) were inoculated (s.c.) at the flanks with Renca cells (10^6 cells/site). Four days post-inoculation, the mice were subject to no treatment (Control) or treatment with IL-2 ([…]/daily for 5 days, i.p.), SSG (12 mg/daily, i.m. at hip regions) or the combination of the two agents for two weeks. […] The dose of SSG was similar to the effective daily dose of the drug for the treatment of murine leishmaniasis (Murray, H. W., J. D. Berman, and S. D. Wright. 1988. Immunochemotherapy for intracellular Leishmania donovani infection: gamma interferon plus pentavalent antimony. J Infect Dis 157:973). Tumor volume was measured during the study period and calculated using the formula for a prolate spheroid (V=4/3×a2b) (Lindner, D. J., E. C. Borden, and D. V. Kalvakolanu. 1997. Synergistic antitumor effects of a combination of interferons and retinoic acid on human tumor cells in vitro and in vivo. Clin Cancer Res 3:931). Student's t test was used for assessing the significance of tumor volume differences among differential treatment groups. Mouse viability (daily) and body weights (weekly) were also recorded during the study period. At the end of the study, Renca tumors and major internal organs (heart, kidney, liver, lung and spleen) were harvested for histology and immunohistochemistry analysis.
smiles,measurement,setting,value
O.O.O.O.O.O.O.O.O.O=C([O-])[C@@H]1[O][Sb]2([O-])([O][Sb]34([OH])[O][C@H]([C@H](O)CO)[C@H]([O]3)[C@H](C(=O)[O-])[O]4)[O][C@H]([C@H](O)CO)[C@@H]1[O]2.[Na+].[Na+].[Na+] [sodium stibogluconate],cell killing of LoVo,LoVo,near-complete cell killing
same,cell killing of SK-N-SH,SK-N-SH,near-complete cell killing
same,PTPase activity of immunocomplexes from treated Flag-PRL-1 transfectants,Flag-PRL-1,little PTPase activities
same,sensitivity of WM35 cells,WM35,minimally affected
same,IFN-alpha-induced Stat1 tyrosine phosphorylation,"[1]; DR cells, 10 μg/ml, 30 min post-stimulation",approximately two folds greater than control
same,Stat1 tyrosine phosphorylation by drug itself,"[1]; DR cells, absence of IFN-alpha",failed to induce Stat1 tyrosine phosphorylation
same,IFN-alpha-induced Stat1 tyrosine phosphorylation,"[1]; DU145, 5 hours post-stimulation",Enhanced Stat1 tyrosine phosphorylation
same,IFN-alpha-induced Stat1 tyrosine phosphorylation,"[1]; WM9, 5 hours post-stimulation",Enhanced Stat1 tyrosine phosphorylation
same,IFN-alpha-induced Stat1 tyrosine phosphorylation,[1]; WM35,failed to enhance
same,IFN-alpha-induced Stat1 tyrosine phosphorylation,[1]; WiT49-N1,failed to enhance
same,tolerance of treatment,Renca tumors,tolerated well
